According to patent US9796757B2, “Compositions and method for treating thrombosis” (The Board of Trustees of the University of Illinois, priority 2013, dated 2017):
No end group written: not given here. *: point of attachment. Myristoyl = CCCCCCCCCCCCCC(=O)*

What was measured:
lung ECs = assay: ex vivo isolated buffer-perfused mouse lung vWF secretion (ELISA of perfusate)
Protocol: Anesthetized GNA12^−/−, GNA12^−/−/EC GNA13^−/−, GNAq^−/−, and GNAq^−/−/EC GNA11^−/− mice were instrumented with a tracheal tube, cannulated via pulmonary artery, and perfused with warmed Krebs buffer at a rate of 1 ml/min for 5 minutes to remove residual blood constituents followed by treatment for 20 minutes with 2 ml recirculating Krebs buffer to assess constitutive vWF secretion. […] Following lung perfusion, lungs were minced and snap-frozen in liquid nitrogen for subsequent determination of whole lung extract vWF levels.
(§1) Mouse samples were collected and vWF level was measured by sandwich ELISA (Lu, et al. (2011) supra). One unit of vWF was defined as the amount present in 1 ml of mouse pooled normal plasma.
To address the role of G protein α subunits in constitutive (basal, spontaneous) vs. PAR-1-mediated vWF secretion from endothelial cells, vWF was measured in the ex vivo isolated buffer-perfused mouse lung (IPML). Lung preparations were used to exclude platelets as a source of vWF and also hepatic stellate cells as contributors of proteases that cleave ultra large vWF strings (Lenting, et al. (2012) supra). Ventilated WT, Gα12^−/−, and EC-Gαq^−/−; Gα11^−/− mouse lungs were cannulated and perfused with warmed recirculating RPMI media via pulmonary artery and left atrial catheters in situ. To assess basal vWF secretion, precleared blood-free lungs were perfused for 15 minutes with […] of 37° C. recirculating RPMI media (approximately the same volume as the normal mouse blood volume). Samples of the recirculating buffer were collected at 5 minute intervals over a period of 30 minutes and vWF (mU/ml perfusate) was measured by ELISA.
To assess the mechanism of thrombin-induced vWF release from ECs via PAR-1 activation, the PAR-1-specific synthetic peptide Thr-Phe-Leu-Leu-Arg (SEQ ID NO:3) was used to stimulate lung ECs. […] The initial slope of the vWF secretion curve was used to estimate the rate of vWF release following addition of Thr-Phe-Leu-Leu-Arg (SEQ ID NO:3), which was approximately 25 mU/mL/min in WT mouse lungs. […] Under these same conditions, basal vWF secretion in the pulmonary circulation of EC-Gαq^−/−; Gα11^−/− lungs was not different from that observed in WT mice, although Thr-Phe-Leu-Leu-Arg (SEQ ID NO:3)-induced vWF release was reduced by approximately 40%. […] The presence of EC WPB vWF in en face descending aorta and paraffin-embedded lung sections was verified by immunostaining and confocal microscopy. WT, Gα12^−/−, and Gα11^−/− tissues stained positive for vWF consistent with there being equivalent vWF synthesis and storage in WPBs in WT, Gα12^−/−, and Gα11^−/− mice.

HUVEC = assay: vWF immunostaining / WPB quantification by confocal microscopy in HUVEC; type: cell-based, human
Protocol: Endothelial cells cultured on gelatin-coated glass bottom dishes were fixed with 4% paraformaldehyde, permeabilized with 0.1% TRITON X-100, blocked with 5% goat serum for 1 hour, and subsequently incubated with rabbit polyclonal antibody directed against vWF (0.5 μg/ml) or contral IgG overnight at 4° C. Coverslips were washed 3× with phosphate-buffered saline and incubated for 30 minutes at room temperature in the dark with ALEXAFLUOR 555 goat anti-mouse and ALEXAFLUOR 488-labeled goat anti-rabbit secondary antibody. Coverslips were washed with phosphate-buffered saline and embedded in mounting media (VECTASHIELD). Confocal microscopy was performed using a ZEISS LSM 510 Meta microscope (Carl Zeiss MicroImaging, Inc.) equipped with 488 nm and 543 nm excitation lasers and pinhole set to achieve 1 Airy unit.
Weibel-Palade Bodies (WPBs) were identified based on vWF immunofluorescence staining, size (approximately 3 μm long and 0.3 μm wide), and shape (elongated organelles). […] The number of WPBs per cell was counted (n=10-30) and the average fluorescence intensity per WPB/cell determined.
To distinguish whether the inhibitory effect of Gα12 depletion on vWF secretion is due to inhibition of vWF secretion as opposed to impaired vWF production or storage, vWF immunostaining and confocal microscopy of control siRNA and Gα12 siRNA-treated HUVECs was performed in presence or absence of thrombin stimulation.
To elucidate the role of Gα12 in WPBs exocytosis, HUVEC were transfected with constitutively-active GFP-tagged Gα12^Q229L mutant, GFP-tagged Gα12^WT, or GFP alone, and then confocal images of vWF immunostaining were quantified.
The role of Gα12/αSNAP interactions in regulation of vWF secretion was analyzed using a two-step experimental approach. First, a library of Gα12-substitution mutants (Meigs, et al. (2005) J. Biol. Chem. 280(18):18049-18055) was used, in which the primary sequence of Gα12 was replaced with the Asn-Ala-Ala-Ile-Arg-Ser (SEQ ID NO:5; NAAIRS cassette) to assess domain-specific in vitro binding of Myc-tagged Gα12^Q229L with or without ‘NAAIRS’ substitution of N-terminal amino acids 4-9 (ΔN4-9) or 10-15 (ΔN10-15) to GST-αSNAP. […] Secondly, to assess the role of Gα12 interaction with α-SNAP in vWF secretion, a GFP-tagged α-SNAP Binding Domain (aa 10-15) minigene (GFP-SBD) was constructed based on the identified Gα12•GST-αSNAP interaction.

HPAEC = assay: vWF secretion assay and ELISA in HPAEC; type: cell-based, human; settings: peptide 1 μM, 1 hour pre-incubation, ELISA (FIG. 2), listed as Myr-SBD peptide
Protocol: vWF secretion assay was as previously described (Lui-Roberts, et al. (2005) J. Cell Biol. 170:627-636). In brief, 48 hours after transfection, endothelial cells were serum-deprived for 4 hours, washed, and incubated with fresh serum-free medium in presence or absence of 25 nM thrombin, A23187 (a calcium ionophore), or culture medium alone (vehicle control). Cell culture media was collected at various time points after agonist stimulation and centrifuged for 10 minutes at 13,000×g to remove cell debris. Supernatants were assayed for vWF content by ELISA. Cells were lysed to determine total vWF secreted per 10^6 cells. The concentration of vWF was expressed as mIU/ml/10^6 cells by relating the absorbance at 450 nm to a vWF standard curve. […] To prevent potential differences in releasable vWF, the same batch of HUVEC was used for all experiments, and control and siRNA treated cells were assessed at equivalent cell densities.
The role of G protein signaling in basal vs. PAR1-stimulated vWF secretion from confluent, low passage, and serum-deprived HUVECs and HPAECs was subsequently determined. […]
It was determined whether Gα12 interaction with αSNAP plays an important role in both basal and evoked VWF secretion from endothelial cell WPBs in vitro and in vivo. […] The effect of Gα12 and Myr-SBD on vWF secretion was assessed as was mortality associated with CLP/sepsis in rodent models. […]

plasma vWF = plasma vWF after CLP or SHAM surgery in mice; type: in vivo; settings: 24 hours after SHAM or CLP surgery, i.v. 100 μl of 100 μM (~5 μM) at time of surgery, vs Myr-Scrambled peptide, n=3/group
Protocol: Mice were anaesthetized by ketamine/xylazine as above and ventilated according to conventional methods. […] Plasma was prepared from citrated blood samples via centrifugation at 3,000×g for 15 minutes at room temperature and stored at −80° C. until vWF measurement by ELISA. The anesthetized mouse was then euthanized for lung tissue collection as described below.
as §1
It was determined whether Gα12 interaction with αSNAP plays an important role in both basal and evoked VWF secretion from endothelial cell WPBs in vitro and in vivo. Myr-SBD peptide (1 μM; 1 hour pre-incubation) blocked both basal VWF secretion and that evoked by thrombin stimulation of HPAEC (FIG. 2). The effect of Gα12 and Myr-SBD on vWF secretion was assessed as was mortality associated with CLP/sepsis in rodent models. […] Importantly, reduced plasma vWF levels (FIG. 3B) were observed 24 hours after SHAM or CLP surgery in mice given 100 μl of 100 μM Myr-SBD (˜5 μM) as compared to mice treated with Myr-Scrambled peptide.

[1] = tail-snip blood loss (primary hemostasis); type: in vivo; settings: EC-Gα13−/−; Gα12−/− mice; i.v. 2 μg/g BW
Protocol: Mice were anaesthetized using 100 mg/kg ketamine and 5 mg/kg xylazine. Once unresponsive to tail pinch, 3-5 mm of the end of the tail was removed with a scalpel, the tail was immersed in 0.9% saline solution (37° C.), and time required for bleeding to stop was recorded (n=10 male mice/group, age 8-12 weeks) according to established methods (Lu, et al. (2011) Cell Res. 21:530-545). If no cessation of bleeding occurred after 30 minutes, the tail was cauterized with a cautery pencil and 30 minutes was recorded as the bleeding time. Blood loss during the bleeding time experiments was expressed as the accumulated amount of hemoglobin (Hb) bled into the container with phosphate-buffer saline in which tails were immersed. Hb (mg Hb/mL saline) was analyzed over the period of the experiment, using Hemocue HB201+ (Hemocue; Cypress, Calif.). Mice were allowed to recover in a clean cage. […]
Using megakaryocyte-restricted-Gα12/13 double knockout mice, it has been observed that Gα13-dependent signaling in platelets is important for hemostasis and thrombosis (Moers, et al. (2003) Nat. Med. 9(11):1418-1422). However, the molecular mechanisms and functional significance of endothelial cell Gα12 and Gα13 in primary hemostasis were not assessed. […] Hb accumulation from the cut tail immersed in saline solution was measured every 5 minutes for 15 minutes. […]

## CCN1C(=O)C=CC1=O [NEM, N-Ethylmaleimide]
Lung ECs; 1 mM added to recirculating lung perfusion system for 1 minute
  vWF secretion: abolished

## GFP-SBD: GFP-tagged α-SNAP Binding Domain (aa 10-15) minigene expressed in HUVEC (RCLLPA; not fully specified; also: GFP-tagged minigene (fusion))
HUVEC; GFP-SBD minigene expressed in HUVEC
  thrombin-induced WPB exocytosis: inhibited
HUVEC; GFP-SBD-expressing HUVECs, control GFP cells significantly reduced (FIG. 1)
  intracellular vWF staining following thrombin stimulation: remained unchanged

## Myr-Arg-Cys-Leu-Leu-Pro-Ala (Myristoyl-RCLLPA) [Myr-SBD]
HPAEC
  basal VWF secretion: blocks
HPAEC; thrombin stimulation
  thrombin-evoked VWF secretion: blocks
Plasma vWF
  plasma vWF levels: reduced

## Thr-Phe-Leu-Leu-Arg (TFLLR) [Thr-Phe-Leu-Leu-Arg (SEQ ID NO:3)]
Lung ECs; EC-Gαq−/−, Gα11−/− mouse lungs
  reduction of peptide-induced vWF release vs WT: approximately 40%
Lung ECs; Gα12−/− mouse lungs, 30 μM peptide in recirculating perfusate
  rate of vWF secretion: 3 mU/mL/min
Lung ECs; WT mice, 30 μM peptide, remained constant for up to 1 hour
  time to peak vWF level in perfusate: 10 to 15 min
Lung ECs; WT mouse lungs, 30 μM peptide in recirculating perfusate
  rate of vWF release (initial slope of vWF secretion curve): approximately 25 mU/mL/min

## purified human plasma-derived vWF: purified human plasma-derived von Willebrand factor
[1]
  hemostasis (tail-snip blood loss): corrected

## thrombin
HUVEC; HUVEC transfected with GFP alone, 25 nM thrombin for 15 minutes
  GFP-positive control cells showing reduced vWF positive WPBs: 80%
HUVEC; control siRNA HUVEC, thirty minutes after thrombin treatment
  decrease in intracellular vWF staining: > 80%
